PubChem BioAssay AID1963597 (National Center for Advancing Translational Sciences (NCATS), 2024)

These compounds were tested on human liver microsomes, metabolic stability half-life (assay: NCATS Human Liver Microsomal (HLM) Stability Profiling). Conditions: higher = more stable; screened at 1 µM (by protocol).
How it was run: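 Half-life derived from parent loss over 0–60 min (0, 5, 10, 15, 30, 60 min) at 37 °C. Incubations: 0.5 mg/mL microsomes, 1 µM test article, NADPH regeneration, pH 7.4 phosphate; quenched in acetonitrile containing albendazole, analysed by MS.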
`CC1(COc2ccc3c(c2)ncn3-c2ccc3cccc(N4CCC(N)CC4)c3n2)COC1` showed a half-life of 75.4 min. Work on `O=C(N[C@H]1CCN(C(=O)c2cc(C(F)(F)F)cc(C(F)(F)F)c2)[C@H](Cc2ccc(Cl)cc2)C1)c1ccnc2ccccc12` yielded a half-life of 49.2 min. `CC(=O)N1CCC(Cc2ccc(C(=O)O)cc2)CC1` gave a half-life of over 120 min. Work on `O=C1N(c2ccccc2)c2ccccc2C1(Cc1ccncc1)Cc1ccncc1` yielded a half-life of 1.71 min. For `COc1ccc(CNC(=O)c2cnn(-c3ccc(C)cc3)c2C2CCN(C(=O)OC(C)(C)C)CC2)cc1`, the half-life was 0.7 min. `COc1ccccc1OC[C@H](O)COC(N)=O` gave a half-life of over 120 min. Compound `O=C(Nc1cccnc1)N1CCC(Cc2cccc(Oc3ccc(C(F)(F)F)cn3)c2)CC1` has a half-life of 33.9 min. `Cn1cc(-c2ccc3nnc(Sc4ccc5nn(C)cc5c4)n3n2)cn1` gave a half-life of over 120 min. `N#Cc1cnc2cnc(NCc3cccnc3)cc2c1Nc1ccc(F)c(Cl)c1` was tested, and the half-life was 12.4 min. `Cc1cc(C)cc(NC(=O)Nc2cccs2)c1` showed a half-life of 3.55 min. `Cc1ccc(Cl)cc1N1CCN(C(=O)c2cn(C3CCCCC3)c(=O)c3c2c2ccccc2n3C)CC1` showed a half-life of 0.92 min. `C=CC(=O)Nc1cccc(CN2C(=O)N(c3c(Cl)c(OC)cc(OC)c3Cl)Cc3cnc(NCCCCN(CC)CC)nc32)c1` showed a half-life of 43 min. `O=C(O)c1ccc(CN2CCOC[C@H]2c2ncc(-c3ccc(F)cc3)[nH]2)cc1` gave a half-life of over 120 min. `CCOC(=O)C1=Cc2ccc(C(F)(F)C(F)(F)F)cc2N=C(N)C1` gave a half-life of 9.93 min. `O=C(O)C1CN(Cc2ccc(-c3nc4cc(Cc5ccccc5F)ccc4s3)c(F)c2)C1` showed a half-life of over 120 min. `NC1CCC(Nc2cc(-c3cccc(NCc4cccc(F)c4)n3)c(Cl)cn2)CC1` (stereo not given) was tested, and the half-life was over 120 min. Compound `CC1(C)O[C@@H]2C[C@H]3[C@@H]4C[C@H](F)C5=CC(=O)CC[C@]5(C)[C@H]4[C@@H](O)C[C@]3(C)[C@]2(C(=O)CO)O1` has a half-life of 18 min. `COCCn1c(SCC(=O)Nc2ccc(F)c(Cl)c2)nc2c(oc3ccccc32)c1=O` showed a half-life of 7.26 min. `CC(C)CN1C(=O)c2cccn2CC1C(=O)N1CCN(C)CC1` (stereo not given) was tested, and the half-life was 62.8 min. Compound `Clc1ccc(C(Cn2ccnc2)OCc2ccc(Sc3ccccc3)cc2)c(Cl)c1` (stereo not given) has a half-life of 54.1 min. Compound `O=C1c2ccccc2S(=O)(=O)N1CCCCN1CCN(c2ncccn2)CC1` has a half-life of 24.5 min. `Clc1cccc(N2CCNCC2)c1` gave a half-life of 39.8 min. `COc1ccc2c(c1OC)C(=O)O[C@@H]2[C@H]1c2cc3c(cc2CCN1C)OCO3` showed a half-life of 103 min. For `Clc1ccc(N2CCN(c3ncnc4c3nc3n4CCCC3)CC2)cc1`, the half-life was 37.9 min. `Cc1ccc(Nc2nc(C)c(NC(=O)c3ccc(C)cc3)c(Nc3ccc(C)cc3)n2)cc1` showed a half-life of 20.5 min. In the case of `Nc1ncnc2c1ncn2[C@H]1O[C@@H](C(=O)N2CCN(CC(=O)Nc3cccc4c3CNC4=O)CC2)[C@H](O)[C@@H]1O`, the half-life was over 120 min. `CCCc1nn(C)c2c(=O)[nH]c(-c3cc(S(=O)(=O)N4CCN(C)CC4)ccc3OCC)nc12` gave a half-life of 18.7 min. With `CCNP(=S)(OC)O/C(C)=C/C(=O)OC(C)C` (stereo not given) the half-life was over 120 min. `CCOC(=O)c1cccnc1` was tested, and the half-life was 9.43 min. `NS(=O)(=O)c1ccc(Cc2c(-c3cccc(-c4ccccc4)c3)nn(-c3nc(C(=O)O)cs3)c2CC2CC2)cc1` was tested, and the half-life was 83.6 min. `Cn1c(N2CCCCS2(=O)=O)nc(C(=O)NCc2ccc(F)cc2)c(O)c1=O` gave a half-life of over 120 min. Work on `CCCc1nc(C)c2c(=O)[nH]c(-c3cc(S(=O)(=O)N4CCN(CC)CC4)ccc3OCC)nn12` yielded a half-life of over 120 min. `N#Cc1cccc(C(=O)Nc2ccc3ncnc(N4CCCCC4)c3c2)c1` showed a half-life of 12.4 min. Compound `Cc1ccc(S(=O)(=O)NC(=O)NN2CCCCCC2)cc1` has a half-life of over 120 min. Work on `O=C(c1ccc(F)cc1)C1CCN(CCn2c(=S)[nH]c3ccccc3c2=O)CC1` yielded a half-life of 8.98 min. Work on `NC(=O)c1ccc(F)c2c1C[C@@H](N(C1CCC1)C1CCC1)CO2` yielded a half-life of 15 min. Compound `CN1CCC2=C(C1)c1ccccc1Cc1ccccc12` has a half-life of 95 min. For `O=C(CSc1nnc(-c2cccc(F)c2)c(-c2cccc(F)c2)n1)NC1CCCCC1`, the half-life was 10.8 min. `Cc1ccc(C(=O)N2CCc3cc(CNS(=O)(=O)c4cccs4)ccc32)cc1` was tested, and the half-life was 5.17 min. For `C[C@@H](Oc1cc(-n2cnc3ccc(OC4CCN(C)CC4)cc32)sc1C(N)=O)c1ccccc1C(F)(F)F`, the half-life was 8.99 min. `Nc1ccc(S(=O)(=O)Nc2ccccc2)cc1` was tested, and the half-life was over 120 min. `CC(C)CC(N(C)C)C1(c2ccc(Cl)cc2)CCC1` (stereo not given) showed a half-life of 3.57 min. `C#CCN(Cc1cc2c(=O)n(C)c(CN3CCN(C)CC3)nc2cc1Cl)c1ccc(C(=O)NCc2cccnc2)cc1` showed a half-life of 4.83 min. For `NC(=O)c1ccccc1O`, the half-life was over 120 min. `COc1cc(-c2nn(C3CCC(N4CCN(C(C)=O)CC4)CC3)c3ncnc(N)c23)ccc1NC(=O)c1cc2ccccc2n1C` (stereo not given) gave a half-life of over 120 min. Work on `NCCc1ccc(O)cc1` yielded a half-life of over 120 min. In the case of `O=C(NN1CCCC1)NS(=O)(=O)c1ccc(Cl)cc1`, the half-life was over 120 min. For `CC(C)(C)Sc1c(CC(C)(C)C(=O)O)n(Cc2ccc(Cl)cc2)c2ccc(OCc3ccc4ccccc4n3)cc12`, the half-life was 34 min. For `C[C@]12CC[C@@H]3c4ccc(O)cc4CC[C@H]3[C@@H]1CCC2=O`, the half-life was 34.1 min. Work on `CCN1CCN(C(=O)c2cc(-c3ccc(F)cc3)nc3c2cnn3C)CC1` yielded a half-life of 99.2 min. In the case of `NC(=Nc1ccccc1)Nc1ccccc1`, the half-life was over 120 min. Compound `CC(C)NC(=O)c1ccc(C=O)cc1` has a half-life of 3.1 min. `CCc1ccc(-n2c(SCc3cccc(F)c3)nc3[nH]ncc3c2=O)cc1` was tested, and the half-life was 80.5 min. With `CCOC(=O)c1sc(NC(=O)c2c(-c3ccccc3)c(-c3ccccc3)nn(C)c2=O)nc1C` the half-life was over 120 min. Work on `CCCC(CCC)C(=O)Nc1ccn([C@@H]2O[C@H](CO)[C@@H](O)C2(F)F)c(=O)n1` yielded a half-life of over 120 min. Work on `CCN1CCN(C(=O)Cc2cccn2-c2ccc(F)cc2)CC1` yielded a half-life of 114 min. `Clc1ccc(CO/N=C(\Cn2ccnc2)c2ccc(Cl)cc2Cl)c(Cl)c1` showed a half-life of 55.1 min. `O=C(O)c1ccccc1NCCc1ccccc1` gave a half-life of 23.8 min. For `COCCc1ccc(OC[C@H](O)CNC(C)C)cc1`, the half-life was over 120 min. Work on `CCCCCCCCC=CCCCCCCCC(=O)NCCOC(=O)CC(C(=O)O)S(=O)(=O)O` (stereo not given) yielded a half-life of over 120 min. In the case of `COC(=O)[C@@H]1CC2=CC(=O)CC[C@]2(C)[C@@]23O[C@@H]2C[C@@]2(C)[C@H](CC[C@@]24CCC(=O)O4)[C@@H]13`, the half-life was over 120 min. In the case of `CN1C(=O)COc2c(C(=O)NC3CN4CCC3CC4)cc(Cl)cc21` (stereo not given), the half-life was over 120 min. Compound `Cc1cccc(/C=N/Nc2cc(N3CCOCC3)n3nc(-c4ccncc4)cc3n2)c1` has a half-life of 23.1 min. `CC1(C)OC[C@H](NC(=O)Nc2ccc(Br)cc2Br)[C@H](c2ccccc2)O1` was tested, and the half-life was 1 min. `Cc1cc(O)c(-c2ccc([C@@H](C)CN(C)C)cc2)c2c1[nH]c(=O)c1sccc12` showed a half-life of 95.3 min. For `CC1(C)SCCN(S(=O)(=O)c2ccc(OCC#CCO)cc2)[C@@H]1C(=O)NO`, the half-life was over 120 min. Work on `CC(CN1c2ccccc2Sc2ccccc21)N(C)C` (stereo not given) yielded a half-life of 32.3 min. In the case of `Cc1nnc(C(C)C)n1C1CC2CCC(C1)N2CCC(NC(=O)C1CCC(F)(F)CC1)c1ccccc1` (stereo not given), the half-life was over 120 min. With `CCc1nn(CCCN2CCN(c3cccc(Cl)c3)CC2)c(=O)n1CCOc1ccccc1` the half-life was 0.98 min. In the case of `N[C@@H](Cc1ccc(Oc2cc(I)c(O)c(I)c2)c(I)c1)C(=O)O`, the half-life was over 120 min. `CC(C)Cc1ccc(CC(=O)O)cc1` gave a half-life of over 120 min. For `CC(C)CCCC(C)N` (stereo not given), the half-life was over 120 min. Compound `CC1=C(C(=O)Nc2cc3cn[nH]c3cc2F)C(c2ccc(Cl)cc2F)N=C(c2ccnc(Cl)c2)N1` (stereo not given) has a half-life of 14.2 min. `CCN(CC)CC(=O)Nc1c(C)cccc1C(=O)OC` was tested, and the half-life was 24 min. `CCOC(=O)c1ncn2c1CN(C)C(=O)c1c(I)cccc1-2` showed a half-life of 111 min.
